From PMC5893419 (Bioorganic & medicinal chemistry letters, 2018)
In brackets after ≈: the same amount, converted by molar mass.

Experiments:
[1] = system: Staphylococcus spp.; test: Antistaphylococcal activity, summary of broth microdilution MICs; assay type: cell-based
[2] = system: Micrococcus luteus SK58; test: microbe, parasite or virus in culture; assay type: cell-based
[3] = system: methicillin-resistant Staphylococcus aureus (MRSA); conditions: in vitro growth of MRSA; cited from earlier work
[4] = system: VAN-resistant S. aureus (VRSA); conditions: against VRSA; cited from earlier work
[5] = system: MRSA COL; test: microbe, parasite or virus in culture; conditions: Staphylococcus aureus, 20 h
[6] = range over staphylococcal strains of Table 1
[7] = range over staphylococcal strains, converted from μM

SMILES | MIC range, antistaphylococcal activity [1, 6] [µM] | MIC range, antistaphylococcal activity [1, 7] [µg/mL] | further results
CCCCCCCSSC(=S)N(CC)CC [1i] | 2 to 4 | 0.6 to 1.2 | –
CCCCCCCCSSC(=S)N(CC)CC [1j, 1-[(diethylcarbamothioyl)disulfanyl]octane] | 2 to 4 | 0.6 to 1.2 | MIC [2]: > 32 µM
CCN(CC)C(=S)SSC(=S)N(CC)CC [disulfiram] | – | – | minimum inhibitory concentration (MIC) range [3]: 4 to 32 µg/mL; interaction with vancomycin (VAN) [4]: synergism
CN[C@H](CC(C)C)C(=O)N[C@H]1C(=O)N[C@@H](CC(N)=O)C(=O)N[C@H]2C(=O)N[C@H]3C(=O)N[C@H](C(=O)N[C@H](C(=O)O)c4cc(O)cc(O)c4-c4cc3ccc4O)[C@H](O)c3ccc(c(Cl)c3)Oc3cc2cc(c3O[C@@H]2O[C@H](CO)[C@@H](O)[C@H](O)[C@H]2O[C@H]2C[C@](C)(N)[C@H](O)[C@H](C)O2)Oc2ccc(cc2Cl)[C@H]1O [vancomycin] | – | – | MIC [5]: 2 µg/mL (≈ 1.38 µM)
